Assay results as given in article PMC4465063 (Mucosal immunology, 2014).

Experiments:
[1] = tested on: purified cathepsin G; conditions: purified enzyme, in vitro; cited from earlier work
[2] = tested on: purified NE; conditions: purified enzyme, in vitro; cited from earlier work
[3] = tested on: neutrophil elastase (NE); conditions: cited from earlier work
[4] = tested on: cathepsin G; conditions: cited from earlier work
[5] = tested on: plasmin; conditions: cited from earlier work
[6] = tested on: neutrophils; conditions: in vitro; cited from earlier work
[7] = tested on: K. pneumoniae; assay: In vivo neutrophil microbial killing assay; design: species or system Klebsiella pneumoniae strain 43816; conditions: thbs1^−/− mice; 10 µg/mouse i.p. 30 min prior to K. pneumoniae i.p.

**Q.** With Ac-DNCPFHYNP-NH2 [DP-9] as the substance, how does the “inhibition of purified cathepsin G” value [1] read?
**A.** ability to inhibit activity of purified cathepsin G in vitro

**Q.** Which results are given for Ac-DNCPYVPNA-NH2 [DA-9]?
**A.** inhibition of purified cathepsin G [1]: without reactive-site sequence similarity or known inhibitory activity; inhibition of purified NE [2]: without reactive-site sequence similarity or known inhibitory activity

**Q.** Which results are given for Ac-DNCQYVYNV-NH2 [DV-9]?
**A.** inhibition of purified cathepsin G [1]: inhibitory activity to both purified cathepsin G and NE; inhibition of purified NE [2]: inhibitory activity to both purified cathepsin G and NE

**Q.** What does the source list for “TSP-1: matricellular protein that exists as a trimer of identical ~150–180 kDa subunits tethered together by disulfide bonds”?
**A.** reversible inhibition of NE ([3]; in the absence of calcium): enhanced; stoichiometry: mol of NE bound per 1 mol of TSP-1 trimer ([3]; in the presence of calcium): 2.7 ± 0.3 mol; inhibition of purified NE ([3]; purified enzyme, in vitro): binds and competitively inhibits; Kd ([3]; read-out: site binding constant, TSP-1 trimer, NE, in the presence of calcium): 0.057 ± 0.013 µM; reversible inhibition of CG ([4]; in the absence of calcium): enhanced; stoichiometry: mol of cathepsin G bound per 1 mol of TSP-1 trimer ([4]; in the presence of calcium): 2.9 ± 0.4 mol; inhibition of purified cathepsin G ([4]; purified enzyme, in vitro): binds and competitively inhibits; Kd ([4]; read-out: site binding constant, TSP-1 trimer, cathepsin G, in the presence of calcium): 0.007 ± 0.0035 µM; inhibition of plasmin ([5]; in vitro, cleavage of fibrinogen): competitive inhibitor; predicted stoichiometry with plasmin ([5]; stoichiometric predictions): one mole of TSP-1 interacting with one mole of plasmin; neutrophil motility and chemotaxis [6]: can bind and induce the motility and chemotaxis of neutrophils in vitro

**Q.** For rTSP-1: recombinant TSP-1, which “bacterial killing function of thbs1^−/− neutrophils” value [7] is on record?
**A.** eliminated the enhanced bacterial killing function of thbs1^−/− neutrophils near to the level of WT neutrophils
